Measurements taken from paper PMC8615929, “Aspirin-Based Organoiron Dendrimers as Promising Anti-Inflammatory, Anticancer, and Antimicrobial Drugs” (Biomolecules, 2021).
Converted amounts (≈) assume the structure as drawn. Where two headings read alike, the source gives them in different places.

Key:
[1] = tested on: Bacillus subtilis (ATCC 6051); experiment: Agar well diffusion antimicrobial assay; conditions: ATCC6051, 24 h, read-out: inhibition zone, B. subtilis
[2] = tested on: Staphylococcus aureus (ATCC12600); experiment: Agar well diffusion antimicrobial assay; conditions: ATCC12600, 24 h, read-out: inhibition zone, S. aureus
[3] = MTT cell viability assay; assay type: cell-based; conditions: human, mean ± SE, unit inferred
Method: (§1) The cytotoxic activities of the tested dendrimers against the breast cancer cell line MCF-7, embryonic kidney non-cancer cells (HEK-293), and hepatic cellular Hep-G2 were evaluated by MTT assay. A cell suspension was diluted with complete medium to a concentration of 5 × 10^4 cell/ml. By using a micropipette, 100 μL aliquots of the cell suspension were pipetted into all wells of 96-well plate (~5000 cells/well). These plates were incubated at 37 °C for one day to allow cell attachment. Then, cells were treated using 100 µL of growth medium consisting of 0, 0.001, 0.01, 0.1, 1, 10, or 100 μL of the freshly prepared aspirin-based dendrimers in triplicate. After that, cells were rinsed with phosphate-buffered saline (PBS), and an appropriate fresh medium including 20 μL MTT in phosphate-buffered saline (0.5 mg/mL) was added to the test wells. The 96-well plate was then further incubated in a carbon dioxide incubator at 37 °C for another 4 h, and the MTT assay study was done. The MTT assay procedure is based on the reduction of the tetrazolium salt MTT to unsolvable purple formazan via metabolically effective cells, making their activities quantifiable via spectrophotometry. Consequently, the produced formazan crystals were dissolved in 120 μL DMSO solvent for each well. Cell viability was established by measuring the absorbance of each well at 570 nm, and at a reference wavelength of 630 nm using an ELISA plate reader. […] Vinblastine was used as the standard and the corresponding IC50 values were determined by Equation (1):(1) IC50(%)=ControlOD−CompoundOD/ControlODx 100

[4] = tested on: breast cancer cell lines (MCF-7); experiment: MTT cell viability assay; assay type: cell-based; conditions: Homo sapiens, MCF7, mean ± SE, unit inferred, read-out: Cytotoxicity (IC50), MCF-7
Method: as §1

[5] = tested on: PGE2; experiment: Determination of rat serum PGE2; assay type: in vivo; conditions: 6 h after carrageenan, oral
Method: Inflammation was induced in all groups by carrageenan (0.2 mL, 1% saline solution) injected subcutaneously into the plantar surface of the right hind paw. Group 1 served as a normal group, group 2 received carrageenan only, and groups 3, 4, 5, 6, and 7 received the test drugs orally 1 h before carrageenan (n = 6) [58]. Blood samples were collected from all groups and centrifuged for 15 minutes to separate the serum and measure serum PGE2 Pg/mL. Percentage inhibition was calculated as [1 − (sample PGE2 concentration/control PGE2 concentration)] × 100. All data of the PGE2 concentration are represented as mean ± SD.
The ability of the dendrimers to inhibit PGE2 was evaluated by measuring the rat serum concentration of PGE2 in blood samples collected after 6 h from subcutaneous carrageenan injection.

[6] = tested on: carrageenan-induced paw edema; experiment: Carrageenan-induced rat paw edema assay; assay type: in vivo; conditions: oral
Method: The present study was performed on adult albino Wistar rats, weighing 185 ± 200 g. Animals were kept in the animal house at MSA university. They were kept under suitable conditions of humidity and temperature (humidity 60–70%, temperature 24 ± 2 °C). The animals were fed by standard pellet chow (El-Nasr chemical Co., Cairo, Egypt) and were given access to water ad libitum.
Inflammation was induced in all groups by carrageenan (0.2 mL, 1% saline solution), which was injected subcutaneously into the plantar surface of the right hind paw. Group 1 served as a normal group, group 2 received carrageenan only, and groups 3, 4, 5, 6, and 7 received the test drugs orally 1 h before carrageenan (n = 6). Edema was measured in diameter (mm) at 1 h, 2 h, 4 h, and 6 h after carrageenan injection using a digital caliper. Percentage edema inhibition was calculated as [1 − (sample diameter/control diameter)] × 100. All data of the paw edema are represented as mean ± SD.
The strength of the tested dendrimers to inhibit edema (% edema inhibition) was calculated based on the changes in paw thickness (edema diameter, mm) at different periods; 1 h, 2 h, 4 h, and 6 h (Table 4).

[7] = tested on: Escherichia coli (ATCC 1175); experiment: Agar well diffusion antimicrobial assay; conditions: ATCC1175, 24 h, read-out: inhibition zone, E. coli
[8] = tested on: gastric mucosa; experiment: Evaluation of gastrointestinal toxicity (gastric ulcers); assay type: in vivo; conditions: rat, 400 mg/kg orally, 4 h, mean ± standard deviation
Method: The gastric mucosa was carefully inspected for the occurrence of ulcers with the aid of an illuminated magnifying lens (l0×), the ulcer score was calculated according to published method and ulcer index was determined using the reported formula [60]. Ulcer index = 10/x, where x= total mucosal area/ total ulcerated area. All data are represented as mean ± standard deviation.
Rats were fasted for 24 h and then randomly allocated into the following groups to evaluate the potential toxicity of dendrimers on the stomach:
Group 3 received G1 (400 mg/kg) orally.
Group 4 received G2 (400 mg/kg) orally.
Group 5 received G3 (400 mg/kg) orally.
Group 6 received G4 (400 mg/kg) orally.
Animals were left for 4 h and then sacrificed under light anesthesia for stomach dissection. The gastric mucosa was carefully inspected for the occurrence of ulcers with the aid of an illuminated magnifying lens (l0x), the ulcer score was calculated based on published study and ulcer index was determined using the reported formula [60]. Ulcer index = 10/x, where x= total mucosal area/total ulcerated area.

[9] = tested on: Klebsiella pneumoniae (ATCC10145); experiment: Agar well diffusion antimicrobial assay; conditions: ATCC10145, 24 h, read-out: inhibition zone, K. pneumoniae
[10] = tested on: gastric mucosa; experiment: Histopathology examination of stomach; assay type: in vivo, rat
Method: The stomach was dissected out, rinsed, and kept in a 10% neutral formalin solution. After fixation, tissues were routinely processed and stained with hematoxylin and eosin for light microscopy. Lesion scores were evaluated in this study according to a published report three parameters were evaluated in relation to their severity; epithelial cell loss was given a score from 0 to 3, hemorrhage was given a score from 0 to 4, and a score from 0 to 2 was given for inflammatory cell infiltration. The total score was given by the summation of the three scores.

[11] = tested on: Aspergillus niger; experiment: Agar well diffusion antifungal assay
[12] = tested on: Candida albicans; experiment: Agar well diffusion antifungal assay
[13] = target: T1, COX-2 (Ovis aries, UniProt P79208); experiment: In vitro COX-2 inhibition assay (ovine COX-1/COX-2 assay kit); assay type: biochemical
T1 construct: purchased
T1 sequence (P79208 17-603): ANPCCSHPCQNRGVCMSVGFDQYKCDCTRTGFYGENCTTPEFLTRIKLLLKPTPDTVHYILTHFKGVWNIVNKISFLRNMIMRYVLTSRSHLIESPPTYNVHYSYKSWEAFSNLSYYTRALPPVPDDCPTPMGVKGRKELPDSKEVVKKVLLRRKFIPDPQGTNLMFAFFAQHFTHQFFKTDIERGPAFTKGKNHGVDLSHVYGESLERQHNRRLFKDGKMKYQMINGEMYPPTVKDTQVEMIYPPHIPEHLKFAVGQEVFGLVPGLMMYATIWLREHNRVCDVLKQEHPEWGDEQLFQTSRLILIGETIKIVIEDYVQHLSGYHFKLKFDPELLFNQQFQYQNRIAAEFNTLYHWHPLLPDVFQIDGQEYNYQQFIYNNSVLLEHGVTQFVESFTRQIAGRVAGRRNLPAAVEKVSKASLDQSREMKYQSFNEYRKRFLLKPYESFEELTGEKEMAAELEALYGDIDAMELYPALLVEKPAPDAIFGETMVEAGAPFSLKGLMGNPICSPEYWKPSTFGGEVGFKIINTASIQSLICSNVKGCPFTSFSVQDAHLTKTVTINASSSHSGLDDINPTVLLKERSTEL
Source text: The selectivity index (SI values) was defined as IC50 COX-1/ IC50 COX-2.
Recent studies on COX-1 and COX-2 inhibitors are focused on increasing the selectivity index of drugs towards […] as it acts as the main effector in the mechanism of pain and inflammation.

[14] = HEK-293 embryonic kidney non-cancer cells, normal cell line, read-out: Cytotoxicity (IC50), HEK-293
[15] = Hep-G2 cells, read-out: Cytotoxicity (IC50), Hep-G2
[16] = rat stomach, compared to the aspirin group
[17] = 15 mg/mL, agar well diffusion, 37 °C 24 h, mean ± SE

**Q.** For CC1(C)S[C@@H]2[C@H](NC(=O)[C@H](N)c3ccccc3)C(=O)N2[C@H]1C(=O)O [Ampicillin], which zone of inhibition at 15000 µg/mL [1] is on record?
**A.** 25 ± 0.06 mm

**Q.** What about the zone of inhibition at 15000 µg/mL [2] of the same molecule?
**A.** 15 ± 0.05 mm

**Q.** With CC(=O)Oc1ccccc1C(=O)O [Aspirin, acetylsalicylic acid] as the molecule, how does the zone of inhibition at 15000 µg/mL [1] read?
**A.** 23 ± 0.08 mm

**Q.** And the IC50 [3, 14]?
**A.** 240.18 ± 0.03 µg/mL (≈ 1330 µM)

**Q.** And the IC50 [3, 15]?
**A.** 192.4 ± 0.04 µg/mL (≈ 1070 µM)

**Q.** What about the IC50 [4] of the same molecule?
**A.** 208.96 ± 0.05 µg/mL (≈ 1160 µM)

**Q.** And the “PGE2 Inhibition%” value [5]?
**A.** 72.40%

**Q.** And the “% Inhibition of edema 1 h” value ([6]; 1 h after carrageenan)?
**A.** 34.82%

**Q.** What about the “% Inhibition of edema 2 h” value ([6]; 2 h after carrageenan) of the same molecule?
**A.** 42.23%

**Q.** What about the “% Inhibition of edema 4 h” value ([6]; 4 h after carrageenan) of the same molecule?
**A.** 35.08%

**Q.** And the “% Inhibition of edema 6 h” value ([6]; 6 h after carrageenan)?
**A.** 47.38%

**Q.** What about the zone of inhibition at 15000 µg/mL [2] of the same molecule?
**A.** 30 ± 0.07 mm

**Q.** What about the zone of inhibition at 15000 µg/mL [7] of the same molecule?
**A.** 18 ± 0.06 mm

**Q.** And the Gastric Mucosal Lesions, Ulcer Area [8]?
**A.** 86.9 ± 9.51 mm²

**Q.** And the “Gastric Mucosal Lesions, Ulcer Score” value [8]?
**A.** 5.00 ± 0.00

**Q.** What about the zone of inhibition at 15000 µg/mL [9] of the same molecule?
**A.** 26 ± 0.11 mm

**Q.** And the Epithelial loss score [10, 16]?
**A.** significantly higher epithelial loss score

**Q.** And the Hemorrhage score [10, 16]?
**A.** highest score of hemorrhage

**Q.** What about the “Histopathological findings of stomach tissue” value ([10]; rat, 400 mg/kg orally, H&E) of the same molecule?
**A.** serious histopathological alterations

**Q.** And the zone of inhibition at 15000 µg/mL ([11]; Aspergillus niger, 24 h, read-out: inhibition zone, A. niger)?
**A.** 30 ± 0.1 mm

**Q.** And the zone of inhibition at 15000 µg/mL ([12]; Candida albicans, 24 h, read-out: inhibition zone, C. albicans)?
**A.** 29 ± 0.09 mm

**Q.** With COc1cccc2c1C(=O)c1c(O)c3c(c(O)c1C2=O)C[C@@](O)(C(=O)CO)C[C@@H]3O[C@H]1C[C@H](N)[C@H](O)[C@H](C)O1 [Doxorubicin] as the molecule, how does the IC50 [3, 14] read?
**A.** 205.07 ± 0.05 µg/mL (≈ 377 µM)

**Q.** And the IC50 [3, 15]?
**A.** 4.8 ± 0.09 µg/mL (≈ 8.83 µM)

**Q.** And the IC50 [4]?
**A.** 5.7 ± 0.07 µg/mL (≈ 10.5 µM)

**Q.** With CNC(C)C1CCC(N)C(OC2C(N)CC(N)C(OC3OCC(C)(O)C(NC)C3O)C2O)O1 (centres unmarked) [Gentamicin] as the molecule, how does the zone of inhibition at 15000 µg/mL [7] read?
**A.** 17 ± 0.04 mm

**Q.** What about the zone of inhibition at 15000 µg/mL [9] of the same molecule?
**A.** 22 ± 0.02 mm

**Q.** For C[C@@H]1[C@H](O)[C@@H](C)/C=C/C=C/CC/C=C/C=C/C=C/C=C/C(O[C@H]2O[C@H](C)[C@@H](O)[C@H](N)[C@@H]2O)CC2O[C@](O)(CC(O)C(O)CCC(O)CC(O)CC(O)CC(=O)O[C@H]1C)CC(O)C2C(=O)O (some centres unmarked) [Nystatin], which “inhibition zone, A. niger” value [11, 17] is on record?
**A.** 15 ± 0.08 mm

**Q.** And the “inhibition zone, C. albicans” value [12, 17]?
**A.** 21 ± 0.11 mm

**Q.** For CS(=O)(=O)c1ccc(C2=C(c3ccccc3)C(=O)OC2)cc1 [Rofecoxib], which IC50 [13] is on record?
**A.** 25 nM
